Key:
[1] = tested on: C2BBe1 (Colorectal Carcinoma); experiment: Bliss excess, mean over the matrix (fraction); higher = more synergy
In short: (§1)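 After 24 hours at 37°C and 5% CO2 in 1536-well plates, cells in DMEM/F12 or RPMI plus 10% FBS received two-drug dose matrices for 72 hours. Viability came from CellTiter-Glo 2.0 luminescence and was scaled as inhibition, anchored at 0 by vehicle wells and at 1 by blank wells. Combination Emax is taken as the second-highest inhibition in the matrix, and Bliss excess as the observed combination effect less EA + EB − EA·EB, with EA and EB the single-agent effects.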

[2] = tested on: TK (B-Cell Non-Hodgkin's Lymphoma); experiment: as above
In short: as §1

[3] = tested on: RS4-11 (B-Lymphoblastic Leukemia); experiment: as above
In short: as §1

[4] = tested on: NCI-H1048 (Small Cell Lung Carcinoma); experiment: as above
In short: as §1

[5] = tested on: JURL-MK1 (Chronic Myelogenous Leukemia); experiment: as above
In short: as §1

[6] = tested on: NCI-H835 (Other Solid Carcinomas); experiment: as above
In short: as §1

[7] = tested on: NCI-H1975 (Lung Adenocarcinoma); experiment: as above
In short: as §1

[8] = tested on: L-363 (Plasma Cell Myeloma); experiment: as above
In short: as §1

[9] = tested on: SCC90 (Head and Neck Carcinoma); experiment: as above
In short: as §1

[10] = tested on: COR-L105 (Lung Adenocarcinoma); experiment: as above
In short: as §1

[11] = tested on: SW1463 (Colorectal Carcinoma); experiment: as above
In short: as §1

[12] = tested on: HT-1197 (Bladder Carcinoma); experiment: as above
In short: as §1

MG-63 (Osteosarcoma) = experiment: as above
In short: as §1

RVH-421 (Melanoma) [13] = experiment: as above
In short: as §1

[14] = tested on: MRK-nu-1 (Breast Carcinoma); experiment: as above
In short: as §1

[15] = tested on: NTERA-2-cl-D1 (Other Solid Carcinomas); experiment: as above
In short: as §1

GCIY (Gastric Carcinoma) = experiment: as above
In short: as §1

RVH-421 (Melanoma) [16] = experiment: combination Emax (second highest fraction inhibited in the dose matrix, 72 h); higher = more inhibition; extreme values may be limits of the assay
In short: as §1

M14 (Melanoma) [17] = experiment: Bliss excess, mean over the matrix (fraction); higher = more synergy
In short: as §1

M14 (Melanoma) [18] = experiment: combination Emax (second highest fraction inhibited in the dose matrix, 72 h); higher = more inhibition; extreme values may be limits of the assay
In short: as §1
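For Bliss excess, mean over the matrix in this document: after 72 h of two-drug dosing.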

Row | Compound | Bliss excess [1] | Bliss excess [2] | Bliss excess [3] | Bliss excess [4] | Bliss excess [5] | Bliss excess [6] | Bliss excess [7] | Bliss excess [8] | Bliss excess [9] | Bliss excess [10] | Bliss excess [11] | Bliss excess [12] | Bliss excess (MG-63 (Osteosarcoma)) | Bliss excess (RVH-421 (Melanoma) [13]) | Bliss excess [14] | Bliss excess [15] | Bliss excess (GCIY (Gastric Carcinoma)) | combination Emax (RVH-421 (Melanoma) [16]) | Bliss excess (M14 (Melanoma) [17]) | combination Emax (M14 (Melanoma) [18])
1 | COc1cccc(OCCCN)c1-c1cc(Nc2cnc(C#N)cn2)n[nH]1 [Prexasertib] + CCc1c2c(nc3ccc(O)cc13)-c1cc3c(c(=O)n1C2)COC(=O)[C@]3(O)CC [SN-38] (first compound max 1 µM, 7x7, partner max 0.3 µM) | -0.0103 | 0.0138 | 0.0066 | 0.0152 | -0.0109 | -0.0014 | 0.108 | 0.0377 | 0.127 | -0.0404 | 0.0515 | -0.0376 | -0.0315 | -0.069 | -0.0613 | 0.0728 | -0.0379 | 0.363 | – | –
2 | COc1cccc(OCCCN)c1-c1cc(Nc2cnc(C#N)cn2)n[nH]1 [Prexasertib] + C[C@@H]1COCCN1C2=NC(=NC(=C2)C3(CC3)[S@](=N)(=O)C)C4=C5C=CNC5=NC=C4 [AZD6738] (first compound max 1 µM, 7x7, partner max 10 µM) | 0.0009 | -0.083 | -0.0225 | -0.0191 | 0.0056 | 0.0548 | 0.0029 | -0.0104 | -0.0457 | -0.0425 | 0.0004 | 0.0065 | 0.0234 | -0.0225 | -0.0703 | 0.0172 | 0.0063 | 0.244 | – | –
3 | COc1cccc2c1C(=O)c1c(O)c3c(c(O)c1C2=O)C[C@@](O)(C(=O)CO)C[C@@H]3O[C@H]1C[C@H](N)[C@H](O)[C@H](C)O1 [Doxorubicin] + Cc1cc2ncnn2cc1Nc1ncc2c(n1)n(C1CCOCC1)c(=O)n2C [AZD7648] (first compound max 1 µM, 7x7, partner max 10 µM) | -0.0082 | 0.0292 | 0.171 | 0.0539 | 0.0792 | 0.0207 | 0.0542 | 0.0622 | -0.0226 | 0.022 | -0.0363 | 0.0022 | 0.0908 | 0.0105 | 0.0157 | 0.0426 | 0.0606 | 0.404 | – | –
4 | COc1cccc(OCCCN)c1-c1cc(Nc2cnc(C#N)cn2)n[nH]1 [Prexasertib] + O=C(c1cc(Cc2n[nH]c(=O)c3ccccc23)ccc1F)N1CCN(C(=O)C2CC2)CC1 [Olaparib] (first compound max 1 µM, 7x7, partner max 10 µM) | -0.0704 | -0.0837 | -0.0025 | -0.0073 | -0.0042 | -0.045 | 0.0284 | -0.0157 | -0.095 | -0.0135 | -0.0549 | -0.044 | -0.0745 | -0.0491 | -0.0392 | 0.0401 | -0.0476 | 0.3 | – | –
5 | COc1cccc(OCCCN)c1-c1cc(Nc2cnc(C#N)cn2)n[nH]1 [Prexasertib] + Cc1cc2ncnn2cc1Nc1ncc2c(n1)n(C1CCOCC1)c(=O)n2C [AZD7648] (first compound max 1 µM, 7x7, partner max 10 µM) | 0.0318 | -0.0477 | -0.0159 | -0.0275 | 0.0485 | -0.0346 | 0.041 | -0.0437 | -0.036 | -0.0549 | -0.0161 | -0.0206 | -0.0128 | -0.0417 | -0.0258 | -0.0688 | -0.0648 | 0.344 | – | –
6 | CCc1c2c(nc3ccc(O)cc13)-c1cc3c(c(=O)n1C2)COC(=O)[C@]3(O)CC [SN-38] + O=C(c1cc(Cc2n[nH]c(=O)c3ccccc23)ccc1F)N1CCN(C(=O)C2CC2)CC1 [Olaparib] (first compound max 0.3 µM, 7x7, partner max 10 µM) | – | – | – | 0.0934 | 0.0401 | 0.017 | 0.0248 | 0.0309 | 0.0728 | -0.022 | 0.0557 | 0.0465 | 0.0681 | -0.0041 | 0.0478 | 0.0387 | 0.0875 | 0.265 | – | –
7 | COc1cccc(OCCCN)c1-c1cc(Nc2cnc(C#N)cn2)n[nH]1 [Prexasertib] + C=CCn1c(=O)c2cnc(Nc3ccc(N4CCN(C)CC4)cc3)nc2n1-c1cccc(C(C)(C)O)n1 [AZD1775] (first compound max 1 µM, partner max 1 µM) | 0.0545 | -0.0252 | 0.0466 | 0.101 | 0.0271 | 0.105 | 0.0404 | 0.0204 | 0.0902 | 0.0157 | 0.0656 | -0.0589 | 0.141 | -0.0524 | 0.211 | 0.19 | 0.0355 | 0.341 | – | –
8 | CCN(CCO)CCCOc1ccc2c(Nc3cc(CC(=O)Nc4cccc(F)c4)[nH]n3)ncnc2c1 [AZD2811] + C=CCn1c(=O)c2cnc(Nc3ccc(N4CCN(C)CC4)cc3)nc2n1-c1cccc(C(C)(C)O)n1 [AZD1775] (first compound max 1 µM, partner max 1 µM) | 0.024 | 0.0069 | -0.0523 | 0.0662 | -0.0001 | – | 0.0001 | -0.0312 | 0.0258 | -0.0415 | -0.0023 | -0.114 | -0.0052 | -0.0694 | 0.0147 | 0.192 | 0.0503 | 0.0949 | – | –
9 | CCc1c2c(nc3ccc(O)cc13)-c1cc3c(c(=O)n1C2)COC(=O)[C@]3(O)CC [SN-38] + CN(C)CCCOc1ccc(-c2ccc3ncc4c(c3c2)n(C2CCOCC2)c(=O)n4C)cn1 [AZD0156] (first compound max 0.3 µM, 7x7, partner max 1 µM) | -0.0179 | 0.0322 | -0.0347 | 0.0147 | 0.0551 | -0.0382 | 0.006 | 0.0206 | 0.0059 | -0.0799 | 0.0296 | -0.0537 | -0.0166 | -0.0576 | -0.0534 | -0.0591 | 0.0057 | 0.191 | – | –
10 | CN(C)CCCOc1ccc(-c2ccc3ncc4c(c3c2)n(C2CCOCC2)c(=O)n4C)cn1 [AZD0156] + O=C(c1cc(Cc2n[nH]c(=O)c3ccccc23)ccc1F)N1CCN(C(=O)C2CC2)CC1 [Olaparib] (first compound max 3 µM, partner max 3 µM) | -0.0428 | 0.0213 | 0.104 | 0.0772 | 0.157 | 0.0053 | 0.0548 | -0.0073 | -0.0621 | 0.0527 | -0.035 | -0.0404 | 0.0183 | – | -0.0198 | 0.0068 | 0.0703 | – | 0.0435 | 0.365
11 | COc1cccc(OCCCN)c1-c1cc(Nc2cnc(C#N)cn2)n[nH]1 [Prexasertib] + CN(C)CCCOc1ccc(-c2ccc3ncc4c(c3c2)n(C2CCOCC2)c(=O)n4C)cn1 [AZD0156] (first compound max 1 µM, 7x7, partner max 1 µM) | 0.0131 | -0.0412 | -0.0548 | -0.0023 | 0.0231 | 0.0571 | 0.026 | -0.039 | -0.0634 | -0.0428 | -0.0265 | -0.0183 | 0.0072 | -0.0325 | 0.0456 | 0.0083 | -0.0072 | 0.314 | – | –
12 | C=CCn1c(=O)c2cnc(Nc3ccc(N4CCN(C)CC4)cc3)nc2n1-c1cccc(C(C)(C)O)n1 [AZD1775] + O=C(c1cc(Cc2n[nH]c(=O)c3ccccc23)ccc1F)N1CCN(C(=O)C2CC2)CC1 [Olaparib] (first compound max 1 µM, partner max 10 µM) | -0.0322 | -0.0318 | -0.0192 | -0.0389 | 0.001 | – | -0.0248 | -0.0153 | -0.0686 | -0.0881 | -0.0418 | -0.0023 | -0.0548 | -0.105 | -0.0311 | 0.107 | -0.0521 | 0.253 | – | –
13 | Cc1c2c(nn1C)CSCc1cc(n(C)n1)CSc1cc(c3ccccc3c1)OCCCc1c(C(=O)O)n(C)c3c-2c(Cl)ccc13 [AZD5991] + C[C@@H]1COCCN1C2=NC(=NC(=C2)C3(CC3)[S@](=N)(=O)C)C4=C5C=CNC5=NC=C4 [AZD6738] (first compound max 1 µM, 7x7, partner max 10 µM) | -0.0093 | 0.0536 | -0.0197 | 0.0445 | 0.0056 | – | 0.0671 | -0.0625 | 0.0141 | -0.0407 | -0.023 | -0.104 | 0.0127 | 0.013 | 0.0056 | 0.0936 | -0.0184 | 0.265 | – | –
14 | Cc1c2c(nn1C)CSCc1cc(n(C)n1)CSc1cc(c3ccccc3c1)OCCCc1c(C(=O)O)n(C)c3c-2c(Cl)ccc13 [AZD5991] + C=CCn1c(=O)c2cnc(Nc3ccc(N4CCN(C)CC4)cc3)nc2n1-c1cccc(C(C)(C)O)n1 [AZD1775] (first compound max 1 µM, partner max 1 µM) | 0.0165 | -0.0721 | 0.0066 | 0.0002 | 0.0395 | – | -0.0523 | 0.0077 | -0.0001 | -0.0025 | -0.0158 | -0.0866 | -0.0317 | 0.0088 | -0.0285 | 0.0383 | 0.0035 | 0.248 | – | –

Source: the supplement of paper PMC11061612
